Assay [1] has as its target T1, Human PDGFRβ, cytoplasmic domain (GST-PDGFRβ) (Homo sapiens, UniProt P09619).
T1 construct: made in house
Kind of assay: Human PDGFRβ biochemical inhibition assay (off-chip Mobility Shift Assay). The essentials:
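GST-tagged cytoplasmic domain (aa 557-1106) from baculovirus was incubated 1 h at room temperature with compound, CSKtide, ATP at Km and Mg²⁺ in HEPES buffer, pH 7.5. Phosphorylated and unphosphorylated peptide were separated by off-chip mobility shift, and the product ratio P/(P+S) gave percent inhibition.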

Assay [2] addresses T2, Human PDGFRα, cytoplasmic domain (GST-PDGFRα) (Homo sapiens, UniProt P16234).
T2 construct: made in house
The experiment in a line: Human PDGFRα biochemical inhibition assay (off-chip Mobility Shift Assay).

As usually defined, the IC50 is the concentration that gives 50% inhibition.

T2 sequence (P16234 550-1089 T674I): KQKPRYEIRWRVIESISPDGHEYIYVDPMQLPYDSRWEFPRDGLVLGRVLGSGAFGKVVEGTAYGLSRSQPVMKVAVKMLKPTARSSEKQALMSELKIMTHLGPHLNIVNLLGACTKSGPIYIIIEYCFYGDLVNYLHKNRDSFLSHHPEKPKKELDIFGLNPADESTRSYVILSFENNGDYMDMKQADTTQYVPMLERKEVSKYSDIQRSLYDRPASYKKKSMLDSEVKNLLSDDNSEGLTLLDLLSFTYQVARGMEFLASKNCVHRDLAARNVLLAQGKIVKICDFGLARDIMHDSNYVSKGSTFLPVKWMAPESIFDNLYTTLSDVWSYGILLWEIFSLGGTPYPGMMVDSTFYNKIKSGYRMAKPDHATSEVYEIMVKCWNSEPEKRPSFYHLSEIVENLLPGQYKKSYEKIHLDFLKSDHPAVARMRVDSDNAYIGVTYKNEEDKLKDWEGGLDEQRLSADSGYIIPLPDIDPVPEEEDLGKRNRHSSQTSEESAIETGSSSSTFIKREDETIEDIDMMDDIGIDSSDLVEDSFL
T1 sequence (P09619 with tags, fused parts or gaps): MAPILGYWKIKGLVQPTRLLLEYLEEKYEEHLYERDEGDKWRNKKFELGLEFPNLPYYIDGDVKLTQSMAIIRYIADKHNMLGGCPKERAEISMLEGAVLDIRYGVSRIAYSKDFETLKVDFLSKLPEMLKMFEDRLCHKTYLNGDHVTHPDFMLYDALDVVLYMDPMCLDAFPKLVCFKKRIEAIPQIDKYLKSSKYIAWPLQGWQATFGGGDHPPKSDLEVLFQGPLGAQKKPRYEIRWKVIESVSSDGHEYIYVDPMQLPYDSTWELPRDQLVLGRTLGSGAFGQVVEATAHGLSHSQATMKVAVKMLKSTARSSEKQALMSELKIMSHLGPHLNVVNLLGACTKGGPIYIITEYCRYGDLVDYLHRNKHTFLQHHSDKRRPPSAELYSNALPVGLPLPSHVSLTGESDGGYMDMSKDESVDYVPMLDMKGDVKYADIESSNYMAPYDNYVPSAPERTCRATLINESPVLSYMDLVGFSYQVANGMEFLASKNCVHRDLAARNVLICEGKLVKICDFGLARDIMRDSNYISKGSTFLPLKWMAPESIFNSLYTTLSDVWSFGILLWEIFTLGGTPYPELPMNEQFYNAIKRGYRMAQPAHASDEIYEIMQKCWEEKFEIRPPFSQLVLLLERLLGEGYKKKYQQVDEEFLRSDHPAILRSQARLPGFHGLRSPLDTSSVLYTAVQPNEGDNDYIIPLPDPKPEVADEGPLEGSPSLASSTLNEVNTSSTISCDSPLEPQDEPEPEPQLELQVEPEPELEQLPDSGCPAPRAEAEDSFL

With `CCn1cc2ncc(N[C@@H](C)c3cccc(NC(=O)c4cnc5ccccc5c4)c3)nc2n1` [Compound 57, (S)-N-(3-(1-((2-ethyl-2H-pyrazolo[3,4-b]pyrazin-6-yl)amino)ethyl)phenyl)quinoline-3-carboxamide], the IC50 in assay [1] and in assay [2] was less than 300 nM throughout.

On to `CCn1cc2ncc(N[C@@H](C)c3cc(NC(=O)c4cnc(OCC5CC5)c(C)c4)ccc3F)nc2n1` [Compound 318, (S)-6-(cyclopropylmethoxy)-N-(3-(1-((2-ethyl-2H-pyrazolo[3,4-b]pyrazin-6-yl)amino)ethyl)-4-fluorophenyl)-5-methylnicotinamide], for which the IC50 in assay [1] and in assay [2] was less than 300 nM each time.

As to `C[C@H](Nc1cnc2[nH]cc(-c3cnn(C)c3)c2n1)c1cccc(NC(=O)[C@@H]2C[C@H]2C(F)(F)F)c1` [Compound 589, (1R,2R)-N-(3-((S)-1-((7-(1-methyl-1H-pyrazol-4-yl)-5H-pyrrolo[2,3-b]pyrazin-2-yl)amino)ethyl)phenyl)-2-(trifluoromethyl)cyclopropane-1-carboxamide], the IC50 in assay [1] is 300 to 1000 nM; in assay [2], not below 1000 nM.

As for `Cc1cncc(NC(=O)c2cccc([C@H](C)Nc3cnc4cnn(C)c4n3)c2)c1` [Compound 744, (S)-3-(1-((1-methyl-H-pyrazolo[3,4-b]pyrazin-6-yl)amino)ethyl)-N-(5-methylpyridin-3-yl)benzamide], the IC50 is not below 1000 nM in assay [1] and less than 300 nM in assay [2].

On to `C[C@H](Nc1cnc2cnn(C)c2n1)c1cccc(NC(=O)c2ccc3c(c2)CCC(=O)O3)c1` [Compound 72, (S)-N-(3-(1-((1-methyl-1H-pyrazolo[3,4-b]pyrazin-6-yl)amino)ethyl)phenyl)-2-oxochromane-6-carboxamide], for which the IC50 in assay [1] and in assay [2] was less than 300 nM throughout.

For the molecule `C[C@H](Nc1cnc2[nH]cc(-c3cnn(C)c3)c2n1)c1cccc(NC(=O)c2cnc(C3CC3)s2)c1` [Compound 578, (S)-2-cyclopropyl-N-(3-(1-((7-(1-methyl-1H-pyrazol-4-yl)-5H-pyrrolo[2,3-b]pyrazin-2-yl)amino)ethyl)phenyl)thiazole-5-carboxamide], the IC50 in assay [1] and in assay [2] was less than 300 nM throughout.

For `CCn1cc2ncc(N[C@@H](C)c3cc(NC(=O)c4cc(F)c(CN5CC[C@@H](O)C5)c(Cl)c4)ccc3C)nc2n1` [Compound 521, 3-chloro-N-(3-((S)-1-((2-ethyl-2H-pyrazolo[3,4-b]pyrazin-6-yl)amino)ethyl)-4-methylphenyl)-5-fluoro-4-(((R)-3-hydroxypyrrolidin-1-yl)methyl) benzamide], the IC50 in assay [1] and in assay [2] was less than 300 nM throughout.

Turning to `Cc1cncc(C(=O)Nc2cccc([C@H](C)Nc3cnc4[nH]cc(C5CC5)c4n3)c2)c1` [Compound 569, (S)-N-(3-(1-((7-cyclopropyl-5H-pyrrolo[2,3-b]pyrazin-2-yl)amino)ethyl)phenyl)-5-methylnicotinamide], the IC50 in assay [1] was less than 300 nM; in assay [2], 300 to 1000 nM.

For the molecule `Cc1cc(C(=O)Nc2cccc([C@H](C)Nc3cnc4cnn(C)c4n3)c2)cnc1C(C)C` [Compound 231, (S)-6-isopropyl-5-methyl-N-(3-(1-((1-methyl-1H-pyrazolo[3,4-6]pyrazin-6-yl)amino)ethyl)phenyl)nicotinamide], the IC50 in assay [1] and in assay [2] was less than 300 nM each time.

For the molecule `Cc1cncc(C(=O)Nc2cccc([C@H](C)Nc3cnc4ccn(C)c4c3)c2)c1` [Compound 80, (S)-5-methyl-N-(3-(1-((1-methyl-1H-pyrrolo[3,2-b]pyridin-6-yl)amino)ethyl)phenyl)nicotinamide], the IC50 in assay [1] was not below 1000 nM; in assay [2], 300 to 1000 nM.

`COc1ncc(C(=O)Nc2cccc([C@H](C)Nc3cnc4[nH]cc(-c5cnn(C)c5)c4n3)c2)cc1C` [Compound 579, (S)-6-methoxy-5-methyl-N-(3-(1-((7-(1-methyl-1H-pyrazol-4-yl)-5H-pyrrolo[2,3-b]pyrazin-2-yl)amino)ethyl)phenyl) nicotinamide]: the IC50 in assay [1] and in assay [2] was less than 300 nM each time.

Take `CCn1cc2ncc(N[C@@H](C)c3cccc(NC(=O)c4ccc(OC(F)F)c(Cl)c4)c3)nc2n1` [Compound 450, (S)-3-chloro-4-(difluoromethoxy)-N-(3-(1-((2-ethyl-2H-pyrazolo[3,4-b]pyrazin-6-yl)amino)ethyl)phenyl)benzamide]: the IC50 in assay [1] and in assay [2] was less than 300 nM throughout.

As for `CCn1cc2ncc(N[C@@H](C)c3cccc(NC(=O)Cc4cccnc4)c3)nc2n1` [Compound 624, (S)-N-(3-(1-((2-ethyl-2H-pyrazolo[3,4-b]pyrazin-6-yl)amino)ethyl)phenyl)-2-(pyridin-3-yl)acetamide], the figures for the IC50 in assay [1] and in assay [2] were not below 1000 nM and 300 to 1000 nM, respectively.

As to `Cc1cncc(C(=O)Nc2cccc([C@H](C)Nc3cnc4cccnc4c3)c2)c1` [Compound 3, (S)—N-(3-(1-((1,5-naphthyridin-3-yl)amino)ethyl)phenyl)-5-methylnicotinamide], the IC50 in assay [1] is not below 1000 nM; in assay [2] it was less than 300 nM.

With `CCOc1ncc(C(=O)Nc2ccc(F)c([C@H](C)Nc3cnc4cn(CC)nc4n3)c2)cc1C` [Compound 316, (S)-6-ethoxy-N-(3-(1-((2-ethyl-2H-pyrazolo[3,4-b]pyrazin-6-yl)amino)ethyl)-4-fluorophenyl)-5-methylnicotinamide], the IC50 in assay [1] and in assay [2] was less than 300 nM in each case.

For the molecule `COC(=O)c1ccc(C(=O)Nc2cccc([C@H](C)Nc3cnc4cnn(C)c4n3)c2)cc1` [Compound 211, methyl (S)-4-((3-(1-((1-methyl-1H-pyrazolo[3,4-b]pyrazin-6-yl)amino)ethyl)phenyl)carbamoyl) benzoate], the IC50 in assay [1] and in assay [2] was less than 300 nM in each case.

Turning to `CCn1cc2ncc(N[C@@H](C)c3cccc(NC(=O)c4cnc(C#N)c(C)c4)c3)nc2n1` [Compound 289, (S)-6-cyano-N-(3-(1-((2-ethyl-2H-pyrazolo[3,4-b]pyrazin-6-yl)amino)ethyl)phenyl)-5-methylnicotinamide], the IC50 in assay [1] is 300 to 1000 nM; in assay [2], less than 300 nM.

In the case of `CCn1cc2ncc(N[C@@H](C)c3cc(NC(=O)c4cnc(NC)c(C)c4)ccc3F)nc2n1` [Compound 379, (S)-N-(3-(1-((2-ethyl-2H-pyrazolo[3,4-b]pyrazin-6-yl)amino)ethyl)-4-fluorophenyl)-5-methyl-6-(methylamino) nicotinamide], the IC50 in assay [1] is 300 to 1000 nM; in assay [2] it was less than 300 nM.

Turning to `Cc1cncc(C(=O)Nc2cccc([C@H](C)Nc3cncc4c3c(C)nn4-c3cnn(C)c3)c2)c1` [Compound 751, (S)-5-methyl-N-(3-(1-((3-methyl-1-(1-methyl-1H-pyrazol-4-yl)-1H-pyrazolo[3,4-c]pyridin-4-yl)amino)ethyl)phenyl)nicotinamide], the IC50 in assay [1] and in assay [2] was not below 1000 nM in each case.

As to `CCn1cc2ncc(N[C@@H](C)c3cccc(NC(=O)c4ccc(CN5CC[C@@H](O)C5)c(C)c4)c3)nc2n1` [Compound 482, N-(3-((S)-1-((2-ethyl-2H-pyrazolo[3,4-b]pyrazin-6-yl)annno)ethyl)phenyl)-4-(((R)-3-hydroxypyrrolidin-1-yl)methyl)-3-methylbenzamide], the IC50 in assay [1] is 300 to 1000 nM; in assay [2], less than 300 nM.

For `CCn1cc2ncc(N[C@@H](C)c3cccc(NC(=O)c4ccc5c(c4)OC(F)(F)O5)c3)nc2n1` [Compound 442, (S)-N-(3-(1-((2-ethyl-2H-pyrazolo[3,4-b]pyrazin-6-yl)amino)ethyl)phenyl)-2,2-difluorobenzo[d][1,3]dioxole-5-carboxamide], the IC50 in assay [1] and in assay [2] was less than 300 nM in each case.

Regarding `CC(C)c1cc(C(=O)Nc2cccc([C@H](C)Nc3cnc4[nH]ccc4n3)c2)no1` [Compound 553, (S)-N-(3-(1-((5H-pyrrolo[2,3-b]pyrazin-2-yl)amino)ethyl)phenyl)-5-isopropylisoxazole-3-carboxamide], the IC50 in assay [1] and in assay [2] was less than 300 nM in each case.

For the molecule `CC1OC(=O)c2ccc(C(=O)Nc3cccc([C@H](C)Nc4cnc5cnn(C)c5n4)c3)cc21` (stereo partly drawn) [Compound 76, 3-methyl-N-(3-((S)-1-((1-methyl-N-pyrazolo[3,4-b]pyrazin-6-yl)amino)ethyl)phenyl)-1-oxo-1,3-dihydroisobenzofuran-5-carboxamide], the IC50 in assay [1] and in assay [2] was less than 300 nM throughout.

As for `CCOc1cncc(C(=O)Nc2cccc([C@H](C)Nc3cnc4cnn(C)c4n3)c2)c1` [Compound 242, (S)-5-ethoxy-N-(3-(1-((1-methyl-1H-pyrazolo[3,4-b]pyrazin-6-yl)amino)ethyl)phenyl)nicotinamide], the IC50 in assay [1] and in assay [2] was less than 300 nM each time.

As to `COC(=O)c1ccc(C(=O)Nc2cccc([C@H](C)Nc3cnc4cnn(C)c4n3)c2)cc1Br` [Compound 197, methyl (S)-2-bromo-4-((3-(1-((1-methyl-1H-pyrazolo[3,4-b]pyrazin-6-yl)amino)ethyl)phenyl)carbamoyl)benzoate], the IC50 in assay [1] and in assay [2] was less than 300 nM each time.

Take `CCn1cc2ncc(N[C@@H](C)c3cccc(NC(=O)c4cnc(NC5CC5)c(C)c4)c3)nc2n1` [Compound 352, (S)-6-(cyclopropylamino)-N-(3-(1-((2-ethyl-2H-pyrazolo[3,4-b]pyrazin-6-yl)amino)ethyl)phenyl)-5-methylnicotinamide]: the half-maximal inhibitory concentration (IC50) in assay [1] is 300 to 1000 nM; in assay [2], less than 300 nM.

With `CCn1cc2ncc(N[C@@H](C)c3cc(NC(=O)c4ccc(F)c(Cl)c4)ccc3C)nc2n1` [Compound 507, (S)-3-chloro-N-(3-(1-((2-ethyl-2H-pyrazolo[3,4-b]pyrazin-6-yl)amino)ethyl)-4-methylphenyl)-4-fluorobenzamide], the IC50 in assay [1] and in assay [2] was less than 300 nM each time.
